Source: US20230159436A1, “APPLICATIONS OF AMIDE ANALOGS OF TRITERPENES IN CURES OF CANCER AND OTHER DISEASES” (Pacific Arrow Limited, priority 2021, published 2023)
Read-outs that look alike come from different tables or passages of the source.

Experiments:
[1] = tested on: cancer growth, cancer invasion, cells invasion or cancer cell invasion; assay: Inhibition of cancer growth and invasion (anti-cancer activity); type: cell-based
Source text: The program is based on the purification methods and biological assays including the MTT assay as described in International Application No. PCT/US05/31900, filed Sep. 7, 2005, U.S. Ser. No. 11/289,142, filed Nov. 28, 2005, and U.S. Ser. No. 11/131,551, filed May 17, 2005, and PCT/US2008/002086, 1188-ALA-PCT, filed Feb. 15, 2008, Ser. No. 12/344,682, 1020-B1-US, filed Dec. 29, 2008, US009499577B2, filed Jun. 24, 2014. The details of Analysis of gene expression of ES2 cells after Y-treatment by Microarray, Data Analysis Methods and Western blot in PCT/US2008/002086, 1188-ALA-PCT, filed Feb. 15, 2008, and the cell invasion experiments methods in International Application PCT/US2010/0042240, filed Jul. 16, 2010.

red blood cells (RBC) = assay: Haemolytic assay; type: cell-based, human
Description: Erythrocytes (RBC) were isolated from human blood (EDTA whole blood, collected randomly). 50 ul of the 10% RBC suspension (in PBS) was added to 2 ml of sample solutions (concentration range from 0.1 ug/ml to 400 ug/ml) in PBS. The mixture was vortexed briefly and sat for 60 min at room temperature. The mixture was spun at 3K for 10 min and the relative amounts of lysed hemoglobin in the supernatant were measured at 540 nm. The synthetic compounds of present application were tested with this method.

[2] = tested on: U2OS, H460, HTB-9, ES2, HCT116, Capan, OVCAR3, DU145, SK-Mel-5, KB, A498, MCF-7, HepG2, T98G, K562, HeLa; assay: MTT Cytotoxic Assay of reaction products and isolated compounds; type: cell-based
Source text: The peaks, fractions and compounds are selected according to the activities of times studies and the changes of peaks. Selecting the HPLC fractions for isolation is according to the cytotoxic activity of the reaction product obtained at a specific time. The compounds having strong to weak activities are selected and isolated. Selecting the HPLC fractions for isolation may be according to the cytotoxic activity of times studies and the change of peaks. The anti cancer activities are the MTT studies of bone (U2OS), lung (H460), bladder (HTB-9), ovary (ES2), colon (HCT116), pancreas (Capan), ovary (OVCAR3), prostate (DU145), skin (SK-Mel-5), mouth (KB), kidney (A498), breast (MCF-7), liver (HepG2), brain (T98G), luekemia (K562), cervix (HeLa).
Esterification, amidation, amination, or sulfonamidation of compound (A), (B), (C), (D1), (D2), (E), (F), (G), (H1), (H2), E4A, E4A2Y, E4D, E4D1, (P1), P(2), terpene, isoprene, triterpenes, hydroxylated triterpenes, with acyl halide, wherein the halide comprise chloride, bromide, fluoride and iodide, wherein the acyl halide comprise acyl chloride, wherein acyl chloride comprise tigloyl chloride, angeloyl chloride, acetyl chloride, crotonoyl chloride, 3,3-dimethylartyloyl chloride, senecioyl chloride, cinnamoyl chloride, pentenoyl chloride, hexanoyl chloride, benzoyl chloride, ethylbutyryl chloride, propionyl chloride, 2-propenoyl chloride, isobutyryl chloride, butyryl chloride, (2E)-2-pentenoyl chloride, 4-Pentenoyl chloride, 5-hexenoyl chloride, heptanoyl chloride, octanoyl chloride, nonanoyl chloride, decanoyl chloride, Lauroyl chloride, myristoyl chloride, oleoyl chloride. The compounds vary in composition when the time or temperature of the reaction is changed. The peaks, fractions and compounds are selected according to the activities of times studies and the changes of peaks. The compounds having strong to weak activities are selected and isolated. The anti cancer activities (Cytotoxic Assay) are the MTT studies of bone (U2OS), lung (H460), bladder (HTB-9), ovary (ES2), colon (HCT116), pancreas (Capan), ovary (OVCAR3), prostate (DU145), skin (SK-Mel-5), mouth (KB), kidney (A498), breast (MCF-7), liver (HepG2), brain (T98G), luekemia (K562), cervix (HeLa). The active esterification, amidation, amination, or sulfonamidation products are purified with HPLC. The reaction product of mixtures and individual compounds are tested with MTT Cytotoxic Assay. Details of method are in Experiment 3 of the present application. A second esterification of compound can be selected from the above experiment results to produce new active compounds. A partial esterification compound is selected from the above experiments to perform a second or repeated with a third esterification with different acyl chloride in order to produce new active compounds with the experiments in the present application. The active compounds of this invention are triterpenes in form of amine, sulfonamides, amide, and urea analogs, providing extremely stable activity in solution. They prolong the activities and duration of drug in a subject.
(§1) Cells. HTB-9 (bladder), HeLa-S3 (cervix), DU145 (prostate), H460 (lung), MCF-7 (breast), K562 (leukemia), HCT116 (colon), HepG2 (liver), U2OS (bone), T98G (brain), SK-MEL-5 (Skin) and OVCAR 3, ES2 (ovary), Pancreas (Capan), Mouth (KB), Kidney (A498).
MTT Assay. The procedure for MTT assay followed the method described by Carmichael et al. (1987) with modifications. The cells were seeded into a 96-well plate at for 24 hours before drug-treatment. The cells were then exposed to the drugs for 48, 72, or 96 hours. After the drug-treatment, MTT (0.5 mg/mL) was added to cultures and incubated for an hour. The formazan (product of the reduction of tetrazolium by viable cells) formed and was dissolved with DMSO and the O.D. at 490 nm, and was measured by an ELISA reader. The MTT level of the cells before drug-treatment was also measured (T0). […]

OVCAR3 = assay: MTT assay, ovary (OVCAR3); type: cell-based
Description: as §1
MTT Assay. The procedure for MTT assay followed the method described by Carmichael et al. (1987) with modifications. The cells were seeded into a 96-well plate at for 24 hours before drug-treatment. The cells were then exposed to the drugs for 48, 72, or 96 hours. After the drug-treatment, MTT (0.5 mg/mL) was added to cultures and incubated for an hour. The formazan (product of the reduction of tetrazolium by viable cells) formed and was dissolved with DMSO and the O.D. at 490 nm, and was measured by an ELISA reader. The MTT level of the cells before drug-treatment was also measured (T0). The % cell-growth (% G) is calculated as: % G=(TD−T0/TC−T0)×100(1), where TC or TD represents O.D. readings of control or drug-treated cells.
When T0>TD, then the cytotoxicity (LC) expressed as % of the control is calculated as: % LC=(TD−T0/T0)×100(2).

For `CC1O[C@@H](O[C@H]2C(O)[C@@H](O)C(C)O[C@H]2O[C@H]2C(O)[C@@H](O)C(CO)O[C@H]2OC2[C@H](O)C(C(=O)O)O[C@@H](O[C@H]3CC[C@@]4(C)C(CC[C@]5(C)C4CC[C@]46O[C@H](O)[C@]7(C4CC(C)(C)[C@@H](O)[C@@H]7O)[C@H](O)C[C@]65C)C3(C)C)[C@H]2O[C@@H]2OC(CO)[C@H](O)C(O)[C@@H]2O)[C@@H](O)C(O)[C@H]1O` (some centres unmarked) [AKOH-M10, reference compound], the “inhibiting cancer growth, cancer invasion, cells invasion or cancer cell invasion” value (shortened to “inhibiting cancer growth”) [1] was “do not show the ability”.
`CC1(C)CC2C3=CCC4[C@@]5(C)CC[C@H](O[C@@H]6OC(C(=O)O)[C@@H](O)C(O[C@@H]7O[C@@H](CO)C(O)[C@@H]7O)[C@@H]6O[C@@H]6OC(CO)[C@H](O)C(O)[C@@H]6O)C(C)(C)C5CC[C@@]4(C)[C@]3(C)[C@@H](O)[C@@H](O)[C@@]2(CO)[C@@H](O)[C@@H]1O` (some centres unmarked) [AKOH-Y, reference compound] was tested, and the “inhibiting cancer growth” value [1] was “do not show the ability”.
With `CC1(C)CC2C3=CCC4[C@@]5(C)CC[C@H](O)[C@](C)(CO)C5CC[C@@]4(C)[C@]3(C)C[C@@H](O)[C@@]2(CO)[C@@H](O)[C@@H]1O` (some centres unmarked) [E4A] the anti-cancer activity [1] was “no anti-cancer activity”, the “inhibiting cancer growth” value [1] was “no effect” and the hemolytic activity (red blood cells (RBC)) was “no hemolytic activity”. For the same compound, the MTT cytotoxic activity ([2]; FIG. 8, FIG. 10) was “no activity”.
With `CC1(C)CC2C3=CCC4C5(C)CCC(N)C(C)(CN)C5CCC4(C)C3(C)CC(N)C2(CN)C(N)C1N` (centres unmarked) [E4D1] the anti-cancer activity [1] was “no anti-cancer activity”, the “inhibiting cancer growth” value [1] was “no effect” and the hemolytic activity (red blood cells (RBC)) was “no hemolytic activity”. The Cytotoxicity activity [2] was “none and moderate and NONE”, the Cytotoxicity activity ([2]; listed as E1E4D1) was “none” and the Cytotoxicity activity ([2]; listed as I 1E4D1) was “none”.
`CC1(C)CC2C3=CCC4C5(C)CCC(O)C(C)(CN)C5CCC4(C)C3(C)CC(O)C2(CN)C(O)C1O` (centres unmarked) [E4D] was tested, and the anti-cancer activity [1] was “no anti-cancer activity”, the “inhibiting cancer growth” value [1] was “no effect” and the hemolytic activity (red blood cells (RBC)) was “no hemolytic activity”. For the same compound, the Cytotoxicity activity [2] was “none and None”.
In the case of `C=CC(=O)NCC1(C)C(O)CCC2(C)C1CCC1(C)C2CC=C2C3CC(C)(C)C(O)C(O)C3(CNC(=O)C=C)C(O)CC21C` (centres unmarked) [MM2], the Cytotoxicity activity [2] is reported as “strong”.
For `C=CC(=O)NCC1(C)C(N)CCC2(C)C1CCC1(C)C2CC=C2C3CC(C)(C)C(NC(=O)C=C)C(N)C3(CN)C(N)CC21C` (centres unmarked) [MM3], the Cytotoxicity activity [2] was “moderate”.
With `C=CC(=O)NCC1(C)C(N)CCC2(C)C1CCC1(C)C2CC=C2C3CC(C)(C)C(NC(=O)C=C)C(N)C3(CNC(=O)C=C)C(N)CC21C` (centres unmarked) [MM4] the Cytotoxicity activity [2] was “weak”.
In the case of `CC(C)C(=O)NCC1(C)C(N)CCC2(C)C1CCC1(C)C2CC=C2C3CC(C)(C)C(N)C(N)C3(CNC(=O)C(C)C)C(N)CC21C` (centres unmarked) [NN1], the Cytotoxicity activity [2] is reported as “moderate”.
`CC(C)C(=O)NCC1(C)C(O)CCC2(C)C1CCC1(C)C2CC=C2C3CC(C)(C)C(O)C(O)C3(CNC(=O)C(C)C)C(O)CC21C` (centres unmarked) [NN2] was tested, and the Cytotoxicity activity [2] was “strong”.
`CC(C)C(=O)NCC1(C)C(N)CCC2(C)C1CCC1(C)C2CC=C2C3CC(C)(C)C(NC(=O)C(C)C)C(N)C3(CN)C(N)CC21C` (centres unmarked) [NN3] was tested, and the Cytotoxicity activity [2] was “moderate”.
In the case of `CC(C)C(=O)NCC1(C)C(N)CCC2(C)C1CCC1(C)C2CC=C2C3CC(C)(C)C(NC(=O)C(C)C)C(N)C3(CNC(=O)C(C)C)C(N)CC21C` (centres unmarked) [NN4], the Cytotoxicity activity [2] is reported as “weak”.
`CCCC(=O)NCC1(C)C(N)CCC2(C)C1CCC1(C)C2CC=C2C3CC(C)(C)C(N)C(N)C3(CNC(=O)CCC)C(N)CC21C` (centres unmarked) [PP1] was tested, and the Cytotoxicity activity [2] was “moderate”.
With `CCCC(=O)NCC1(C)C(O)CCC2(C)C1CCC1(C)C2CC=C2C3CC(C)(C)C(O)C(O)C3(CNC(=O)CCC)C(O)CC21C` (centres unmarked) [PP2] the Cytotoxicity activity [2] was “strong”.
In the case of `CCCC(=O)NCC1(C)C(N)CCC2(C)C1CCC1(C)C2CC=C2C3CC(C)(C)C(NC(=O)CCC)C(N)C3(CN)C(N)CC21C` (centres unmarked) [PP3], the Cytotoxicity activity [2] is reported as “moderate”.
In the case of `CCCC(=O)NCC1(C)C(N)CCC2(C)C1CCC1(C)C2CC=C2C3CC(C)(C)C(NC(=O)CCC)C(N)C3(CNC(=O)CCC)C(N)CC21C` (centres unmarked) [PP4], the Cytotoxicity activity [2] is reported as “weak”.
For `CCC=CC(=O)NCC1(C)C(N)CCC2(C)C1CCC1(C)C2CC=C2C3CC(C)(C)C(N)C(N)C3(CNC(=O)C=CCC)C(N)CC21C` (centres unmarked) [QQ1], the Cytotoxicity activity [2] was “moderate”.
In the case of `CCC=CC(=O)NCC1(C)C(O)CCC2(C)C1CCC1(C)C2CC=C2C3CC(C)(C)C(O)C(O)C3(CNC(=O)C=CCC)C(O)CC21C` (centres unmarked) [QQ2], the Cytotoxicity activity [2] is reported as “strong”.
For `CC=C(C)C(=O)OCC1(C)C(O)CCC2(C)C1CCC1(C)C2CC=C2C3CC(C)(C)C(O)C(O)C3(CO)C(O)CC21C` (centres unmarked) [Tig-N], the anti-cancer activity [1] was “have anti cancer activities” and the “IC50 of ovary (OVCAR3)” value (OVCAR3) was 18.
For `CC=C(C)C(=O)OCC1(C)C(O)CCC2(C)C1CCC1(C)C2CC=C2C3CC(C)(C)C(O)C(OC(=O)C(C)=CC)C3(CO)C(O)CC21C` (centres unmarked) [Tig-Q], the anti-cancer activity [1] was “have anti cancer activities” and the “IC50 of ovary (OVCAR3)” value (OVCAR3) was 23.
For `CC=C(C)C(=O)OCC1(C)C(O)CCC2(C)C1CCC1(C)C2CC=C2C3CC(C)(C)C(O)C(OC(=O)C(C)=CC)C3(COC(=O)C(C)=CC)C(O)CC21C` (centres unmarked) [Tig-T], the anti-cancer activity [1] was “have anti cancer activities” and the “IC50 of ovary (OVCAR3)” value (OVCAR3) was 25.
`CC=C(C)C(=O)OCC1(C)C(OC(=O)C(C)=CC)CCC2(C)C1CCC1(C)C2CC=C2C3CC(C)(C)C(OC(=O)C(C)=CC)C(O)C3(CO)C(O)CC21C` (centres unmarked) [Tig-U] was tested, and the “IC50 of ovary (OVCAR3)” value (OVCAR3) was 27.
In the case of `CC=C(C)C(=O)OCC1(C)C(O)CCC2(C)C1CCC1(C)C2CC=C2C3CC(C)(C)C(OC(=O)C(C)=CC)C(O)C3(COC(=O)C(C)=CC)C(O)CC21C` (centres unmarked) [Tig-V], the anti-cancer activity [1] is reported as “have anti cancer activities” and the “IC50 of ovary (OVCAR3)” value (OVCAR3) is reported as 9.
